Values after ≈ are worked out from the molar mass of the structure shown. Like-named read-outs stand apart in the source and are kept apart here.
Legend:
[1] = In vitro DOX cumulative release kinetics by dialysis; format: physicochemical; settings: DPBS pH 7.4 with 0.5% Tween 80, 37 °C, 1 mg DOX/mL
[2] = single i.v.; for Animal death: dead/treated mice
[3] = DOX pharmacokinetics after i.v. administration; settings: 5 mg DOX/kg
[4] = tested on: PC-3 xenograft tumor; assay: In vivo antitumor efficacy, PC-3 human prostate cancer xenograft; set-up: species or system male nude mice; settings: 5 mg/kg i.v. on days 1, 4, 7; based on RTV on day 19
[5] = tested on: 4T1.2 cells; assay: In vitro cytotoxicity, MTT assay; format: cell-based, mouse; settings: 72 h, DOX concentration
[6] = tested on: NCI/ADR-RES cells; assay: Intracellular uptake of DOX; format: cell-based; settings: 6 μg/mL DOX, 1 h (similar at 3 h)
[7] = tested on: 4T1.2 tumor; assay: In vivo antitumor efficacy, 4T1.2 syngeneic murine breast cancer model; set-up: species or system female BALB/c mice; settings: 10 mg DOX/kg i.v., three consecutive injections
[8] = tested on: KB 8-5 xenograft tumor; assay: In vivo antitumor efficacy, drug-resistant KB 8-5 xenograft; set-up: species or system female nude mice; settings: for Tumor growth inhibition rate IR: based on RTV on day 22

With `COc1cccc2c1C(=O)c1c(O)c3c(c(O)c1C2=O)C[C@@](O)(C(=O)CO)C[C@@H]3O[C@H]1C[C@H](N)[C@H](O)[C@H](C)O1` [DOX, Doxorubicin] the “amount of released DOX” value ([1]; after 74 h) was 96.35%, the DOX released ([1]; first 9 h) was 92.14% and the Weight loss ([2]; 5 mg/kg) was 2.2%. The Animal death ([2]; 5 mg/kg) was 0/3, the Weight loss ([2]; 10 mg/kg) was 7.8% and the Animal death ([2]; 10 mg/kg) was 0/3. For the same compound, the Animal death ([2]; 15 mg/kg) was 2/3, the Animal death ([2]; 15 mg/kg, listed as free DOX) was 2 out of 3 and the AUC [3] was 5430 ± 110 ng·h/mL. For the same compound, the CL [3] was 18.40 ± 2.39 mL/h, the Vd [3] was 25.32 ± 2.15 mL and the t1/2 ([3]; non-compartment model) was 4.20 ± 0.35 h. For the same compound, the “Tumor growth inhibition rate IR” value [4] was 38.72%, the IC50 [5] was 0.1867 µg/mL (≈ 0.343 µM) and the “DOX fluorescence signals in cells (confocal imaging)” value [6] was “Least amounts of fluorescence signals”. The “mortality from systemic toxicity” value [7] was “all of the mice treated with free DOX died from systemic toxicity on day 7”, the “Tumor growth inhibition rate IR” value ([8]; 5 mg/kg i.v. on days 1, 4, 7) was 6.13% and the “Tumor growth inhibition rate IR” value ([8]; 7.5 mg/kg i.v. on days 1, 4, 7) was 20.91%. For the same compound, the body weight change ([8]; 5 and 7.5 mg/kg i.v. on days 1, 4, 7) was “significant weight loss”.

Reference: PMC4267990 (Journal of controlled release : official journal of the …, 2014)
